Source: patent US20240158446A1, “CYCLIC COMPOUND HAVING SELECTIVE INHIBITORY ACTION ON KRAS OVER HRAS AND NRAS” (CHUGAI SEIYAKU KABUSHIKI KAISHA, priority 2021, published 2024)
Where two headings read alike, the source gives them in different places.

Legend:
[1] = test system: human lung cancer strain NCI-H441; assay: cells; conditions: NCI-H441, 96 h, read-out: NCI-H441 IC50 (nM), NCI-H441 cell proliferation, 4 days, CellTiter-Glo;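 note: cell proliferation inhibition after four days measured by CellTiter-Glo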
[2] = target: GDP-bound HRAS wild-type protein (Homo sapiens, UniProt P01112); assay: Binding to HRAS by surface plasmon resonance (SPR), Single Cycle Kinetics; conditions: SPR; for HRAS/KRAS (ratio of KD value for HRAS to KD value for KRAS): GDP-bound HRAS wild-type protein vs GDP-bound KRAS wild-type protein
Chain of GDP-bound HRAS wild-type protein (P01112 whole entry): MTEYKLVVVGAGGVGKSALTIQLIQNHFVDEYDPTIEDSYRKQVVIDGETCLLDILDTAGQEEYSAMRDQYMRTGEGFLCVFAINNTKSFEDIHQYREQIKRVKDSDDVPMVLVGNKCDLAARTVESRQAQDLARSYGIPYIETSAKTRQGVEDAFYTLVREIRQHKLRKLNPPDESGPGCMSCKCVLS

[3] = target: GDP-bound NRAS wild-type protein (Homo sapiens, UniProt P01111); assay: Binding to NRAS by surface plasmon resonance (SPR), Single Cycle Kinetics; conditions: SPR; for NRAS/KRAS (ratio of KD value for NRAS to KD value for KRAS): GDP-bound NRAS wild-type protein vs GDP-bound KRAS wild-type protein
Chain of GDP-bound NRAS wild-type protein (P01111 whole entry): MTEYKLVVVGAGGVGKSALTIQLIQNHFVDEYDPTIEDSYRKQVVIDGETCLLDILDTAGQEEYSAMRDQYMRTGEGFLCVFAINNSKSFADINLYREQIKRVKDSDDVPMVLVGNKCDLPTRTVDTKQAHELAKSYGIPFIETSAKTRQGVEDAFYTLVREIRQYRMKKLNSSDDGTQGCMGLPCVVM

[4] = test system: human lung cancer strain NCI-H441; conditions: read-out: NCI-H441 cell proliferation inhibitory activity, 50% proliferation inhibitory concentration (IC50 value); NCI-H441, four days, CellTiter-Glo;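 note: cell proliferation inhibition after four days measured by CellTiter-Glo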
[5] = target: GDP-bound KRAS wild-type protein (Homo sapiens, UniProt P01116); assay: Binding to KRAS by surface plasmon resonance (SPR), Single Cycle Kinetics; conditions: SPR, Single Cycle Kinetics
Chain of GDP-bound KRAS wild-type protein (P01116 whole entry): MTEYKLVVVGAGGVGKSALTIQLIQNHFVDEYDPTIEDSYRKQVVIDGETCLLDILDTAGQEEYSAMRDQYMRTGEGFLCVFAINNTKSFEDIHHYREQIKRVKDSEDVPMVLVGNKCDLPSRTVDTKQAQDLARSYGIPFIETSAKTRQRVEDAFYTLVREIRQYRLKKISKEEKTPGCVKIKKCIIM

[6] = 1:1 binding model, read-out: KD value with respect to GDP-bound KRAS wild-type protein
[7] = GDP-bound KRAS wild-type protein, read-out: KRAS KD

| IC50 [1] [nM] | IC50 [4] [nM] | Kd [5, 6] [nM] | Kd [5, 7] [nM] | Structure (SMILES) | HRAS/KRAS (ratio of KD value for HRAS to KD value for KRAS) [2] | ratio of the KD value with respect to GDP-bound HRAS wild-type protein to the KD value with respect to KRAS [2] | NRAS/KRAS (ratio of KD value for NRAS to KD value for KRAS) [3] | ratio of the KD value with respect to GDP-bound NRAS wild-type protein to the KD value with respect to KRAS [3] |
| --- | --- | --- | --- | --- | --- | --- | --- | --- |
| 49.1 | – | – | – | CCC[C@H]1C(=O)N[C@@H]([C@@H](C)CC)C(=O)N(C)CC(=O)N(C)[C@H]2C/C=C\CCN(C2=O)[C@@H](Cc2ccc(C)cc2)C(=O)N(C)CC(=O)N[C@@H](CCc2ccc(C(F)(F)F)c(Cl)c2)C(=O)N2C[C@H](C)C[C@H]2C(=O)NC2(CCC2)C(=O)N(C)[C@@H](C2CCCC2)C(=O)N(C)[C@H](C(=O)N(C)CC)CC(=O)N1C [PP1850] | – | – | – | – |
| 30.4 | – | – | – | CC[C@H](C)[C@@H]1NC(=O)[C@H](CC)N(C)C(=O)C[C@@H](C(=O)N(C)CC)N(C)C(=O)[C@H](C2CCCC2)N(C)C(=O)C2(CCC2)NC(=O)[C@@H]2C[C@H](C)CN2C(=O)[C@H](CCc2ccc(C(F)(F)F)c(OC)c2)NC(=O)CN(C)C(=O)[C@H](Cc2ccc(C)cc2)N2CC/C=C\C[C@@H](C2=O)N(C)C(=O)CN(C)C1=O [PP1853] | – | – | – | – |
| – | 7.8 | 0.27 | 0.27 | CCC[C@H]1C(=O)N[C@@H]([C@@H](C)CC)C(=O)N2CCC[C@H]2C(=O)N(C)[C@H]2C/C=C\CCN(C2=O)[C@@H](Cc2ccc(C(F)(F)F)cc2)C(=O)N(C)CC(=O)N[C@@H](CCc2cc(F)c(C(F)(F)F)c(F)c2)C(=O)N2C[C@H](OCC)C[C@H]2C(=O)N(C)C2(CCC2)C(=O)N(C)[C@@H](C2CCCC2)C(=O)N(C)[C@H](C(=O)N2CCCC2)CC(=O)N1C [PP3116] | A (a compound having 10 or more and less than 20 is denoted as A) | A (a compound having 10 or more and less than 20 is denoted as A) | A (a compound having 10 or more and less than 20 is denoted as A) | A (a compound having 10 or more and less than 20 is denoted as A) |
| – | 2.6 | 0.15 | 0.15 | CCC[C@H]1C(=O)N[C@@H]([C@@H](C)CC)C(=O)N2CCC[C@H]2C(=O)N(C)[C@H]2C/C=C\CCN(C2=O)[C@@H](Cc2ccc(C)cc2)C(=O)N(C)CC(=O)N[C@@H](CCc2cc(F)c(C(F)(F)F)c(F)c2)C(=O)N2C[C@H](OCC)C[C@H]2C(=O)N(C)C2(CCC2)C(=O)N(C)[C@@H](C2CCCC2)C(=O)N(C)[C@H](C(=O)N2CCCC2)CC(=O)N1C [PP3117, (1S,4S,10S,13S,17S,20S,26S,28R,32S,38S,42Z)-20-cyclopentyl-32-[2-[3,5-difluoro-4-(trifluoromethyl)phenyl]ethyl]-28-ethoxy-2,14,18,21,24,36-hexamethyl-10-[(1S)-1-methylpropyl]-13-propyl-38-(p-tolylmethyl)-17-(pyrrolidine-1-carbonyl)spiro[2,8,11,14,18,21,24,30,33,36,39-undecazatetracyclo[37.5.1.0^4,8.0^26,30]pentatetracont-42-ene-23,1′-cyclobutane]-3,9,12,15,19,22,25,31,34,37,45-undecone] | A (a compound having 10 or more and less than 20 is denoted as A) | A (a compound having 10 or more and less than 20 is denoted as A) | A (a compound having 10 or more and less than 20 is denoted as A) | A (a compound having 10 or more and less than 20 is denoted as A) |
| – | 1.9 | 0.052 | 0.052 | CCC[C@H]1C(=O)N[C@@H]([C@@H](C)CC)C(=O)N(C)CC(=O)N(C)[C@H]2C/C=C\CCN(C2=O)[C@@H](Cc2ccc(C(F)(F)F)cc2)C(=O)N(C)CC(=O)N[C@@H](CCc2cc(F)c(C(F)(F)F)c(F)c2)C(=O)N2C[C@H](OCC)C[C@H]2C(=O)N(C)C2(CCC2)C(=O)N(C)[C@@H](C2CCCC2)C(=O)N(C)[C@H](C(=O)N2CCCC2)CC(=O)N1C [PP3120, (2S,8S,12R,14S,20S,23S,27S,30S,36S,38Z)-20-cyclopentyl-8-[2-[3,5-difluoro-4-(trifluoromethyl)phenyl]ethyl]-12-ethoxy-4,16,19,22,26,32,35-heptamethyl-30-[(1S)-1-methylpropyl]-27-propyl-23-(pyrrolidine-1-carbonyl)-2-[[4-(trifluoromethyl)phenyl]methyl]spiro[1,4,7,10,16,19,22,26,29,32,35-undecazatricyclo[34.5.1.0^10,14]dotetracont-38-ene-17,1′-cyclobutane]-3,6,9,15,18,21,25,28,31,34,42-undecone] | A (a compound having 10 or more and less than 20 is denoted as A) | A (a compound having 10 or more and less than 20 is denoted as A) | AA (a compound having 20 or more is denoted as AA) | AA (a compound having 20 or more is denoted as AA) |
| – | 1.5 | 0.043 | 0.043 | CCC[C@H]1C(=O)N[C@@H]([C@@H](C)CC)C(=O)N(C)CC(=O)N(C)[C@H]2C/C=C\CCN(C2=O)[C@@H](Cc2ccc(C)cc2)C(=O)N(C)CC(=O)N[C@@H](CCc2cc(F)c(C(F)(F)F)c(F)c2)C(=O)N2C[C@H](OCC)C[C@H]2C(=O)N(C)C2(CCC2)C(=O)N(C)[C@@H](C2CCCC2)C(=O)N(C)[C@H](C(=O)N2CCCC2)CC(=O)N1C [PP3121, (2S,8S,12R,14S,20S,23S,27S,30S,36S,38Z)-20-cyclopentyl-8-[2-[3,5-difluoro-4-(trifluoromethyl)phenyl]ethyl]-12-ethoxy-4,16,19,22,26,32,35-heptamethyl-30-[(1S)-1-methylpropyl]-27-propyl-2-(p-tolylmethyl)-23-(pyrrolidine-1-carbonyl)spiro[1,4,7,10,16,19,22,26,29,32,35-undecazatricyclo[34.5.1.0^10,14]dotetracont-38-ene-17,1′-cyclobutane]-3,6,9,15,18,21,25,28,31,34,42-undecone] | A (a compound having 10 or more and less than 20 is denoted as A) | A (a compound having 10 or more and less than 20 is denoted as A) | A (a compound having 10 or more and less than 20 is denoted as A) | A (a compound having 10 or more and less than 20 is denoted as A) |

| Structure (SMILES) | IC50 [1] [nM] | IC50 [4] [nM] | Kd [5, 6] [nM] | Kd [5, 7] [nM] | HRAS/KRAS (ratio of KD value for HRAS to KD value for KRAS) [2] | ratio of the KD value with respect to GDP-bound HRAS wild-type protein to the KD value with respect to KRAS [2] | NRAS/KRAS (ratio of KD value for NRAS to KD value for KRAS) [3] | ratio of the KD value with respect to GDP-bound NRAS wild-type protein to the KD value with respect to KRAS [3] |
| --- | --- | --- | --- | --- | --- | --- | --- | --- |
| CCC[C@H]1C(=O)N[C@@H]([C@@H](C)CC)C(=O)N(C)CC(=O)N(C)[C@H]2C/C=C\CCN(C2=O)[C@@H](Cc2ccc(C(F)(F)F)cc2)C(=O)N(C)CC(=O)N[C@@H](CCc2cc(F)c(C(F)(F)F)c(F)c2)C(=O)N2C[C@H](OCC)C[C@H]2C(=O)N(C)C2(CCC2)C(=O)N(C)[C@@H](C2CCCC2)C(=O)N(C)[C@H](C(=O)N2CCCCC2)CC(=O)N1C [PP3118, (2S,8S,12R,14S,20S,23S,27S,30S,36S,38Z)-20-cyclopentyl-8-[2-[3,5-difluoro-4-(trifluoromethyl)phenyl]ethyl]-12-ethoxy-4,16,19,22,26,32,35-heptamethyl-30-[(1S)-1-methylpropyl]-23-(piperidine-1-carbonyl)-27-propyl-2-[[4-(trifluoromethyl)phenyl]methyl]spiro[1,4,7,10,16,19,22,26,29,32,35-undecazatricyclo[34.5.1.0^10,14]dotetracont-38-ene-17,1′-cyclobutane]-3,6,9,15,18,21,25,28,31,34,42-undecone] | – | 6.7 | 0.12 | 0.12 | B (a compound having 3 or more and less than 10 is denoted as B) | B (a compound having 3 or more and less than 10 is denoted as B) | A (a compound having 10 or more and less than 20 is denoted as A) | A (a compound having 10 or more and less than 20 is denoted as A) |
| CCC[C@H]1C(=O)N[C@@H]([C@@H](C)CC)C(=O)N(C)CC(=O)N(C)[C@H]2C/C=C\CCN(C2=O)[C@@H](Cc2ccc(C)cc2)C(=O)N(C)CC(=O)N[C@@H](CCc2cc(F)c(C(F)(F)F)c(F)c2)C(=O)N2C[C@H](OCC)C[C@H]2C(=O)N(C)C2(CCC2)C(=O)N(C)[C@@H](C2CCCC2)C(=O)N(C)[C@H](C(=O)N2CCCCC2)CC(=O)N1C [PP3119, (2S,8S,12R,14S,20S,23S,27S,30S,36S,38Z)-20-cyclopentyl-8-[2-[3,5-difluoro-4-(trifluoromethyl)phenyl]ethyl]-12-ethoxy-4,16,19,22,26,32,35-heptamethyl-30-[(1S)-1-methylpropyl]-23-(piperidine-1-carbonyl)-27-propyl-2-(p-tolylmethyl)spiro[1,4,7,10,16,19,22,26,29,32,35-undecazatricyclo[34.5.1.0^10,14]dotetracont-38-ene-17,1′-cyclobutane]-3,6,9,15,18,21,25,28,31,34,42-undecone] | – | 3.5 | 0.09 | 0.09 | A (a compound having 10 or more and less than 20 is denoted as A) | A (a compound having 10 or more and less than 20 is denoted as A) | A (a compound having 10 or more and less than 20 is denoted as A) | A (a compound having 10 or more and less than 20 is denoted as A) |
